Reference: ChEMBL document CHEMBL1201862, “PubChem BioAssay data set” (2004)
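Each compound was tested at five concentrations against cells in 96-well plates for 48 hours. GI50: concentration for 50% inhibition of growth.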 The source made the active and inactive calls. No stated cut-off is given here; in the data, active = GI50 up to about 1.1 µM and inactive = higher.

Tests used:
Test in all cases: NCI-60 cell line screen, 48 h
A498 = test system: A498
BT-549 = test system: BT-549
HCC 2998 = test system: HCC 2998
HCT-116 = test system: HCT-116
HCT-15 = test system: HCT-15
M14 = test system: M14
MCF7 = test system: MCF7
MDA-MB-231 = test system: MDA-MB-231
MDA-MB-435 = test system: MDA-MB-435
MDA-N = test system: MDA-N
OVCAR-4 = test system: OVCAR-4
RPMI-8226 = test system: RPMI-8226
SF-268 = test system: SF-268
SF-539 = test system: SF-539
SK-OV-3 = test system: SK-OV-3
SNB-75 = test system: SNB-75
SW-620 = test system: SW-620
UACC-257 = test system: UACC-257
SR = test system: SR

In the case of `C(=N/c1ccccc1C1SCCCS1)/c1ccccc1`, the GI50 (A498) is reported as > 100 µM (inactive), the GI50 (BT-549) is reported as > 100 µM (inactive) and the GI50 (HCC 2998) is reported as > 100 µM (inactive). The GI50 (HCT-116) was > 100 µM (inactive), the GI50 (HCT-15) was > 100 µM and the GI50 (M14) was > 100 µM (inactive). For the same molecule, the GI50 (MCF7) was > 100 µM (inactive), the GI50 (MDA-MB-231) was > 100 µM (inactive) and the GI50 (MDA-MB-435) was > 100 µM (inactive). The GI50 (MDA-N) was > 100 µM (inactive), the GI50 (OVCAR-4) was > 100 µM (inactive) and the GI50 (RPMI-8226) was > 100 µM (inactive). The GI50 (SF-268) was > 100 µM (inactive), the GI50 (SF-539) was > 100 µM (inactive) and the GI50 (SK-OV-3) was > 100 µM (inactive). The GI50 (SNB-75) was > 100 µM (inactive), the GI50 (SW-620) was > 100 µM (inactive) and the GI50 (UACC-257) was > 100 µM (inactive).
With `O=CN1CCN(C(=O)c2ccc(Cl)cc2)C1=S` the GI50 (A498) was 14.8 µM (inactive), the GI50 (BT-549) was 25.4 µM (inactive) and the GI50 (HCC 2998) was 19.8 µM (inactive). For the same molecule, the GI50 (HCT-116) was 18 µM (inactive), the GI50 (HCT-15) was 21.3 µM and the GI50 (M14) was 14.6 µM (inactive). The GI50 (MCF7) was 2.79 µM (inactive), the GI50 (MDA-MB-231) was 16.4 µM (inactive) and the GI50 (MDA-MB-435) was 14.8 µM (inactive). The GI50 (MDA-N) was 16.6 µM (inactive), the GI50 (OVCAR-4) was 17.3 µM (inactive) and the GI50 (RPMI-8226) was 3.35 µM (inactive). The GI50 (SF-268) was 19.2 µM (inactive), the GI50 (SF-539) was 26.6 µM (inactive) and the GI50 (SK-OV-3) was 25.1 µM (inactive). For the same molecule, the GI50 (SNB-75) was 20 µM (inactive), the GI50 (SW-620) was 18 µM (inactive) and the GI50 (UACC-257) was 17.5 µM (inactive).
With `CCC[C@H](N[S+]([O-])c1ccc(C)cc1)C(C(=O)OCC)=C(c1ccccc1)c1ccccc1` (some centres not stated) the GI50 (A498) was 19.7 µM (inactive), the GI50 (BT-549) was 21.2 µM (inactive) and the GI50 (HCC 2998) was 3.13 µM (inactive). For the same molecule, the GI50 (HCT-116) was 14.1 µM (inactive), the GI50 (HCT-15) was 25.2 µM and the GI50 (M14) was 22 µM (inactive). The GI50 (MCF7) was 16.6 µM (inactive), the GI50 (MDA-MB-231) was 18.7 µM (inactive) and the GI50 (MDA-MB-435) was 17.1 µM (inactive). The GI50 (MDA-N) was 20.8 µM (inactive), the GI50 (OVCAR-4) was 16.7 µM (inactive) and the GI50 (RPMI-8226) was 18.7 µM (inactive). For the same molecule, the GI50 (SF-268) was 30.1 µM (inactive), the GI50 (SF-539) was 22.9 µM (inactive) and the GI50 (SK-OV-3) was 24.6 µM (inactive). The GI50 (SNB-75) was 17.8 µM (inactive), the GI50 (SW-620) was 57.4 µM (inactive) and the GI50 (UACC-257) was 16.1 µM (inactive).
With `CCOC(=O)C1(C(=O)OCC)CCCN1C(=O)[C@H](CNC(=O)OC(C)(C)C)NC(=O)OCc1ccccc1` the GI50 (BT-549) was > 100 µM (inactive), the GI50 (HCC 2998) was 67.6 µM (inactive) and the GI50 (HCT-116) was > 100 µM (inactive). For the same molecule, the GI50 (HCT-15) was > 100 µM, the GI50 (M14) was > 100 µM (inactive) and the GI50 (MCF7) was > 100 µM (inactive). The GI50 (MDA-MB-231) was > 100 µM (inactive), the GI50 (MDA-MB-435) was > 100 µM (inactive) and the GI50 (MDA-N) was > 100 µM (inactive). The GI50 (OVCAR-4) was > 100 µM (inactive), the GI50 (RPMI-8226) was 31.3 µM (inactive) and the GI50 (SF-268) was > 100 µM (inactive). For the same molecule, the GI50 (SF-539) was > 100 µM (inactive), the GI50 (SK-OV-3) was > 100 µM (inactive) and the GI50 (SNB-75) was 79.6 µM (inactive). For the same molecule, the GI50 (SR) was 51.6 µM (inactive), the GI50 (SW-620) was > 100 µM (inactive) and the GI50 (UACC-257) was > 100 µM (inactive).
`C(#Cc1ccccc1)SC1=C(c2ccccc2)S/C(=C(\SC#Cc2ccccc2)c2ccccc2)S1` was tested, and the GI50 (BT-549) was > 100 µM (inactive), the GI50 (HCC 2998) was > 100 µM (inactive) and the GI50 (HCT-116) was > 100 µM (inactive). For the same molecule, the GI50 (HCT-15) was > 100 µM, the GI50 (M14) was > 100 µM (inactive) and the GI50 (MCF7) was > 100 µM (inactive). For the same molecule, the GI50 (MDA-MB-231) was > 100 µM (inactive), the GI50 (MDA-MB-435) was > 100 µM (inactive) and the GI50 (MDA-N) was > 100 µM (inactive). The GI50 (OVCAR-4) was > 100 µM (inactive), the GI50 (SF-268) was > 100 µM (inactive) and the GI50 (SF-539) was > 100 µM (inactive). The GI50 (SK-OV-3) was > 100 µM (inactive), the GI50 (SNB-75) was > 100 µM (inactive) and the GI50 (SR) was > 100 µM (inactive). For the same molecule, the GI50 (SW-620) was > 100 µM (inactive) and the GI50 (UACC-257) was > 100 µM (inactive).
In the case of `Cc1ccc(C(=O)O)cc1S(=O)(=O)Nn1cnc2ccc(S(=O)(=O)Nc3ccccc3C(=O)O)cc2c1=O`, the GI50 (BT-549) is reported as > 100 µM (inactive), the GI50 (HCC 2998) is reported as > 100 µM (inactive) and the GI50 (HCT-116) is reported as 46.1 µM (inactive). The GI50 (HCT-15) was > 100 µM, the GI50 (M14) was 18.3 µM (inactive) and the GI50 (MCF7) was > 100 µM (inactive). For the same molecule, the GI50 (MDA-MB-231) was > 100 µM (inactive), the GI50 (MDA-MB-435) was > 100 µM (inactive) and the GI50 (MDA-N) was 47.3 µM (inactive). For the same molecule, the GI50 (OVCAR-4) was > 100 µM (inactive), the GI50 (RPMI-8226) was 54.5 µM (inactive) and the GI50 (SF-268) was > 100 µM (inactive). For the same molecule, the GI50 (SF-539) was > 100 µM (inactive), the GI50 (SK-OV-3) was > 100 µM (inactive) and the GI50 (SNB-75) was > 100 µM (inactive). For the same molecule, the GI50 (SR) was > 100 µM (inactive), the GI50 (SW-620) was > 100 µM (inactive) and the GI50 (UACC-257) was > 100 µM (inactive).
`CCOc1ccc(N/C(=C(/C(Cl)=C(/Cl)NCCO)[N+](=O)[O-])n2nnc3ccccc32)cc1` was tested, and the GI50 (A498) was 31 µM (inactive), the GI50 (BT-549) was 18.5 µM (inactive) and the GI50 (HCC 2998) was 79.4 µM (inactive). For the same molecule, the GI50 (HCT-116) was 37.7 µM (inactive), the GI50 (HCT-15) was 20.5 µM and the GI50 (M14) was 30.4 µM (inactive). The GI50 (MCF7) was 19 µM (inactive), the GI50 (MDA-MB-231) was 20.6 µM (inactive) and the GI50 (MDA-MB-435) was 16.4 µM (inactive). For the same molecule, the GI50 (MDA-N) was 28.9 µM (inactive), the GI50 (OVCAR-4) was 16.7 µM (inactive) and the GI50 (RPMI-8226) was 30.7 µM (inactive). For the same molecule, the GI50 (SF-268) was 20.1 µM (inactive), the GI50 (SF-539) was 34.5 µM (inactive) and the GI50 (SK-OV-3) was 12.8 µM (inactive). The GI50 (SNB-75) was 60.1 µM (inactive), the GI50 (SW-620) was 19.2 µM (inactive) and the GI50 (UACC-257) was 41.3 µM (inactive).
For `CCOC(=O)/C=C(/C(=O)OCC)n1ccc(=O)n(Cc2cnnn2CCCCOC(C)=O)c1=O`, the GI50 (BT-549) was 60.3 µM (inactive), the GI50 (HCC 2998) was > 100 µM (inactive) and the GI50 (HCT-116) was > 100 µM (inactive). For the same molecule, the GI50 (HCT-15) was > 10 µM, the GI50 (MCF7) was 52 µM (inactive) and the GI50 (MDA-MB-231) was > 100 µM (inactive). For the same molecule, the GI50 (MDA-MB-435) was > 100 µM (inactive), the GI50 (MDA-N) was > 100 µM (inactive) and the GI50 (OVCAR-4) was > 100 µM (inactive). For the same molecule, the GI50 (RPMI-8226) was 59.2 µM (inactive), the GI50 (SF-268) was > 100 µM (inactive) and the GI50 (SF-539) was 36.6 µM (inactive). For the same molecule, the GI50 (SK-OV-3) was > 100 µM (inactive), the GI50 (SNB-75) was > 100 µM (inactive) and the GI50 (SR) was 27.9 µM (inactive). For the same molecule, the GI50 (SW-620) was 20.1 µM (inactive) and the GI50 (UACC-257) was > 100 µM (inactive).
